From paper PMC5884652, “New antimicrobial peptide kills drug-resistant pathogens without detectable resistance” (Oncotarget, 2018)
Like-named read-outs stand apart in the source and are kept apart here. Ends that are not written are not given here.

Key:
[1] = C18 RP-HPLC retention time as measure of hydrophobicity; assay type: physicochemical; conditions: chromatographic, linear gradient of 10–60 acetonitrile containing 0.7% trifluoroacetic acid for 50 min, mean, used as measure of hydrophobicity
Experimental: Supplementary Table 1: Sequence, molecular mass, retention time, and hemolytic and cytotoxic activities of clavaspirin and its analogues
Designation Sequences Molecular Retention HC /HC a EC /EC b
The meanretention time was analyzed using C18 reversed phase-high-performance liquid chromatography (RP-HPLC).
Samples were run using a linear gradient of 10–60 acetonitrile, containing 0.7% trifluoroacetic acid for 50 min. aHemolytic activity was determined in PBS buffer containing 8% hRBCs. bEffective concentration in HaCaT cells was determined in DMEM buffer containing 10% FBS and 1% PS.

[2] = test system: HaCaT (human keratinocyte) cells; assay: Cytotoxicity, MTT assay; assay type: cell-based; conditions: DMEM containing 10% FBS and 1% PS, 24 h, 37° C; for EC50: read-out: EC50 (effective concentration in HaCaT cells)
Experimental: To examine the cytotoxic effects of the peptides, HaCaT (human keratinocyte) cells were cultured in Dulbecco’s modified Eagle’s medium (DMEM) supplemented with antibiotics (100 U/ml penicillin and 100 μg/ml streptomycin) and 10% fetal calf serum at 37° C in a humidified chamber under a 5% CO2 atmosphere. Growth inhibition was evaluated using 3-(4, 5-dimethylthizol-2-yl)-2, 5-diphenyltetrazolium bromide (MTT) assays to measure cell viability. After cells were seeded into a 96-well plate at a density of 2 × 10^4/well and incubated for 24 h, twofold serial dilutions of each peptide in DMEM were added to the wells, and the cells were incubated for an additional 24 h at 37° C. Thereafter, 10 μl of MTT (5 mg/ml) was added to each well, and the plate was incubated for 4 h. The supernatants were then removed, and 50 μl of DMSO was added to each well to dissolve any remaining precipitate. Finally, the absorbance at 570 nm was measured using a microtiter reader.

[3] = test system: human red blood cells (hRBCs); assay: Hemolysis; assay type: cell-based; conditions: PBS buffer containing 8% hRBCs, 1 h, 37° C, absorbance 414 nm, triplicate
Experimental: Fresh human red blood cells (hRBCs) from healthy donors were centrifuged at 800 × g and washed with phosphate-buffered saline (PBS) until the supernatant was clear. Twofold serial dilutions of the peptides in PBS were added to a 96-well plate, after which the hRBCs were added to obtain a final concentration of 8% (vol/vol). The samples were then incubated with mild agitation for 1 h at 37° C. The samples were then centrifuged at 800 × g for 10 min, and the absorbance of the supernatant was measured at 414 nm. All the measurements were performed in triplicate, and the percentages of hemolysis were calculated using equation 1: % hemolysis=[(A414 in peptide solution−A414 in PBS)/(A414 in […]−A414 in PBS)]×100 (1)
Where 100% hemolysis was defined as the absorbance measured from hRBCs exposed to 1% Triton X-100 and zero hemolysis was characterized using hRBCs alone in PBS [40].

E. coli ATCC 25922 = assay type: cell-based, Escherichia coli
From the text: (§1) The method for peptide synthesis has been described in detail previously. E. coli ATCC 25922 (LB media), P. aeruginosa ATCC 15692 (NB+0.5% NaCl media), Listeria monocytogenes ATCC 3710 (LB media), Staphylococcus epidermidis ATCC 12228 (LB media), and S. aureus ATCC 29213 (TSB media) were obtained from the American Type Culture Collection (Manassas, VA, USA). Bacillus subtilis KCTC 1998 (LB media), Salmonella typhimurium KCTC 1926 (NB media), and Proteus vulgaris KCTC 2433 (NB media) were obtained from the Korean Collection for Type Cultures (Jeollabuk-do, Korea). E. coli CCARM 1238 was received from the Culture Collection of Antibiotic Resistant Microbes at Seoul Women’s University, Korea. Drug-resistant P. aeruginosa 3543, 3904, 3547, and 4007 and S. aureus 3126, 0027, 5157, 1635, 4761, 5159, 3359, 2122, 1630, 1870, 3511, 5156, and 3518 were resistant strains isolated from patients with otitis media in a Chonnam National University’s hospital.
(§2) The antibacterial activities of AMPs (melittin, clavaspirin, and its analogs) and conventional antibiotic drugs (erythromycin, gentamicin, ampicillin, and piperacidin) were determined using microdilution assays. Bacterial cells were cultured at 37° C in appropriate culture media at pH 5.5 or pH 7.4 until collection during the mid-log phase and suspended in 10 mM sodium phosphate buffer (pH 5.5 or pH 7.4) supplemented with 10% culture medium. Thereafter, 2× serial dilutions of each peptide (0.25–128 μM) or antibiotic (0.25–256 μM) were added to sterile 96-well plates, and aliquots of cell suspension (5 × 10^5 colony forming units (cfu)/mL) were seeded into each well. The samples were then incubated at 37° C for 24 h. At the end of the incubation, the minimum inhibitory concentrations (MICs) of the peptides were determined using a VERSA Max microplate reader (Molecular Devices Co., Sunnyvale, CA, USA) at a wavelength of 600 nm. […] MIC values were calculated as the mean of 3 independent experiments conducted in triplicate.

[4] = test system: Proteus vulgaris KCTC 2433; assay type: cell-based
From the text: as §1, with “Bacillus subtilis KCTC 1998 (LB media), Salmonella typhimurium KCTC 1926 (NB media), and Proteus vulgaris KCTC 2433 (NB media) were obtained from the Korean Collection for Type Cultures (Jeollabuk-do, Korea).” left out
as §2

[5] = test system: Salmonella typhimurium KCTC 1926; assay type: cell-based
From the text: as §1, with “Bacillus subtilis KCTC 1998 (LB media), Salmonella typhimurium KCTC 1926 (NB media), and Proteus vulgaris KCTC 2433 (NB media) were obtained from the Korean Collection for Type Cultures (Jeollabuk-do, Korea).” left out
as §2

[6] = pH 5.5 (I), 10 mM sodium phosphate buffer, 10% LB, 37° C, 24 h, mean of 3 experiments
[7] = pH 7.4 (II), 10 mM sodium phosphate buffer, 10% LB, 37° C, 24 h, mean of 3 experiments

| Substance | Retention time [1] | EC10 (effective concentration in HaCaT cells) [2] | EC50 [2] | HC10 (hemolytic activity) [3] | HC50 (hemolytic activity) [3] | MIC, E. coli (E. coli ATCC 25922; ATCC 25922, 24 h, pH 5.5) | MIC, E. coli (E. coli ATCC 25922; ATCC 25922, 24 h, pH 7.4) | MIC, P. vulgaris ([4]; KCTC 2433, 24 h, pH 5.5) | MIC, P. vulgaris ([4]; KCTC 2433, 24 h, pH 7.4) | MIC, S. typhimurium ([5]; KCTC 1926, 24 h, pH 5.5) | MIC, S. typhimurium ([5]; KCTC 1926, 24 h, pH 7.4) | MIC, E. coli (E. coli ATCC 25922; [6]) | MIC, E. coli (E. coli ATCC 25922; [7]) | MIC, P. vulgaris [4, 6] | MIC, P. vulgaris [4, 7] | MIC, S. typhimurium [5, 6] | MIC, S. typhimurium [5, 7] |
| --- | --- | --- | --- | --- | --- | --- | --- | --- | --- | --- | --- | --- | --- | --- | --- | --- | --- |
| FKRFIGSVKHGIGHLVHHIGVAL-NH2 [CSP-3] | 21.4 min | 84 | 188 µM | > 400 | > 400 | 2 µM | 4 µM | 4 µM | 8 µM | 64 µM | 4 µM |  |  |  |  |  |  |
| FLRFIGSVKHGKGHLVHHIGVAL-NH2 [CSP-4] | 20.2 min | > 400 | > 400 µM | > 400 | > 400 |  |  |  |  |  |  | 2 µM | 4 µM | 4 µM | 8 µM | 64 µM | 4 µM |
